From article PMC6150381, “Design, Synthesis, and Biological Evaluation of N,N-Disubstituted-4-arylthiazole-2-methylamine Derivatives as Cholesteryl Ester Transfer Inhibitors” (Molecules : A Journal of Synthetic Chemistry and Natural …, 2017)
Read-outs that look alike come from different tables or passages of the source.

How the values were obtained:
[1] = design: method as in PMID 26047975; conditions: phase II clinical trials; ref [18]; cited from earlier work
recombinant CETP [2] = molecular target: T1, recombinant CETP (Homo sapiens, UniProt P11597); design: method as in previous work; conditions: in Figure 2; ref previous work; cited from earlier work
T1 construct: purchased Roar, New York, NY, USA RB-RPAK
T1 sequence (P11597 18-493): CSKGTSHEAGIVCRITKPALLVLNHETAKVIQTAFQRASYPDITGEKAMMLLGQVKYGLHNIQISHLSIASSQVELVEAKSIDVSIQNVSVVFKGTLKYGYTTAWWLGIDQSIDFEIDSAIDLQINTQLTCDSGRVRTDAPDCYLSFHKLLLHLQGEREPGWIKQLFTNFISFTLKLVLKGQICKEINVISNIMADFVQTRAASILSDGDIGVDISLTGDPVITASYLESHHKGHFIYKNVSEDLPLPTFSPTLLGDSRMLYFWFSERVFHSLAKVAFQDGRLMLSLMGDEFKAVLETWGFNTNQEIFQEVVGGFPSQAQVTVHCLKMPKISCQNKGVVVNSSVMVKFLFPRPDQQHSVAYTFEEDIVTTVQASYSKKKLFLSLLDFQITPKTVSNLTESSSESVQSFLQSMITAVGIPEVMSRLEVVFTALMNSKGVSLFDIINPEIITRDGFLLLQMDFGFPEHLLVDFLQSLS

recombinant CETP [3] = molecular target: T1, recombinant CETP; test: In vitro CETP inhibitory assay (BODIPY-CE fluorescence assay, CETP RP Activity Assay Kit); format: biochemical; conditions: CETP inhibition, eight-point titration, each concentration tested three times
Experimental: The IC50 was determined from a curve fit of the data with each concentration tested three times.

[4] = In vitro metabolic stability study, human liver microsomes; format: in vitro ADME; conditions: for Remaining (T = 60 min): human liver microsome, with NADPH regenerating system; for microsomal CLint at 10 µM: human, liver microsomes, read-out: CL (clearance rate)
Experimental: (§1) Ten microliters (10 μL, 100 μM/L) of compounds and 80 μL of liver microsomes were mixed and incubated at 37 °C for 10 min, and then 10 μL of NADPH regenerating system was added. Samples were obtained at 0 min, 5 min, 10 min, 20 min, 30 min and 60 min. respectively, and 300 μL stop solution (cold in 4 °C, including 100 ng/mL tolbutamide and 100 ng/mL labetalol) was added to terminate the reaction. After oscillating for 10 min, the plates were centrifuged (4000 rpm) at room temperature for 20 min, and the supernatants were used for analysis.

[5] = In vitro metabolic stability study, rat liver microsomes; format: in vitro ADME; conditions: for Remaining (NCF = 60 min) / Remaining (T = 60 min): rat liver microsome; for Remaining (NCF = 60 min): no co-factor (no NADPH regenerating system); for Remaining (T = 60 min): with NADPH regenerating system; for microsomal CLint at 10 µM: rat, liver microsomes, read-out: CL (clearance rate)
Experimental: as §1

[6] = In vitro metabolic stability study, human liver microsomes; format: in vitro ADME; conditions: human liver microsome, no co-factor (no NADPH regenerating system)
[7] = ref [12],[13],[14], cited from earlier work

Structure (SMILES)	IC50 (recombinant CETP [3])	melting point	further results
CCOC(=O)N1c2ccc(C(F)(F)F)cc2[C@@H](N(Cc2cc(C(F)(F)F)cc(C(F)(F)F)c2)c2ncc(OCCCC(=O)O)cn2)C[C@H]1CC [AMG-899]			increased HDL-C levels [1]: 179.1%; reduced LDL-C levels [1]: 45.3%
O=C(CCN(Cc1ccc(F)cc1)c1cccc(Oc2ccccc2)c1)Nc1ccccc1 [Compound 5]			IC50 (recombinant CETP [2]): 24.8 µM
COc1ccc(N(Cc2ccc(F)cc2)Cc2nc(-c3ccc([N+](=O)[O-])cc3)cs2)cc1OC [Compound 30, N-(4-Fluorobenzyl)-3,4-dimethoxy-N-((4-(4-nitrophenyl)thiazol-2-yl)methyl)aniline]	0.79 ± 0.02 µM	111 to 112.8 °C	metabolic stability (in words) ([4]; human and rat liver microsomes): weak human/rat liver microsome stability; Remaining (T = 60 min) [4]: 22.9%; microsomal CLint at 10 µM [4]: 48.1 µL/min/mg; Remaining (NCF = 60 min) [5]: 90.5%; Remaining (T = 60 min) [5]: 3.2%; microsomal CLint at 10 µM [5]: 122 µL/min/mg; Remaining (NCF = 60 min) [6]: 68.0%
COc1ccc(N(Cc2ccc(F)cc2)Cc2nc(-c3ccc(C(F)(F)F)cc3)cs2)cc1OC [Compound 32, N-(4-Fluorobenzyl)-3,4-dimethoxy-N-((4-(4-(trifluoromethyl)phenyl)thiazol-2-yl)methyl)aniline]	0.97 ± 0.01 µM	88.7 to 89.5 °C	Remaining (T = 60 min) [4]: 39.3%; microsomal CLint at 10 µM [4]: 29.8 µL/min/mg; Remaining (NCF = 60 min) [5]: 101.3%; Remaining (T = 60 min) [5]: 10.1%; microsomal CLint at 10 µM [5]: 79.3 µL/min/mg; Remaining (NCF = 60 min) [6]: 69.1%
COc1ccc(N(Cc2ccc(F)cc2)Cc2nc(-c3ccc(-c4cccs4)cc3)cs2)cc1OC [Compound 40, N-(4-Fluorobenzyl)-3,4-dimethoxy-N-((4-(4-(thiophen-2-yl)phenyl)thiazol-2-yl)methyl)aniline]	6.03 ± 0.04 µM	115.8 to 119 °C	
COc1ccc(N(Cc2ccc(F)cc2)Cc2nc(-c3ccc(C)cc3)cs2)cc1OC [Compound 42, N-(4-Fluorobenzyl)-3,4-dimethoxy-N-((4-(p-tolyl)thiazol-2-yl)methyl)aniline]	14 ± 0.21 µM	105.3 to 107 °C	
COc1ccc(-c2csc(CN(Cc3ccc(F)cc3)c3ccc(OC)c(OC)c3)n2)cc1 [Compound 43, N-(4-Fluorobenzyl)-3,4-dimethoxy-N-((4-(4-methoxyphenyl)thiazol-2-yl)methyl)aniline]	11 ± 0.31 µM	76.3 to 79 °C	
COc1ccc(N(Cc2ccc(F)cc2)Cc2nc(-c3ccc(N)cc3)cs2)cc1OC [Compound 44, N-((4-(4-Aminophenyl)thiazol-2-yl)methyl)-N-(4-fluorobenzyl)-3,4-dimethoxyaniline]	16.7 ± 0.23 µM	144.7 to 146.2 °C	
COc1ccc(N(Cc2ccc(F)cc2)Cc2nc(-c3ccc(NC(=O)C(F)(F)F)cc3)cs2)cc1OC [Compound 45, N-(4-(2-(((3,4-Dimethoxyphenyl)(4-fluorobenzyl)amino)methyl)thiazol-4-yl)phenyl)-2,2,2-trifluoroacetamide]	15.3 ± 0.17 µM	143.6 to 145.8 °C	
COc1ccc(N(Cc2ccc(F)cc2)Cc2nc(-c3ccc(NC(C)=O)cc3)cs2)cc1OC [Compound 46, N-(4-(2-(((3,4-Dimethoxyphenyl)(4-fluorobenzyl)amino)methyl)thiazol-4-yl)phenyl)acetamide]	> 50 µM	134.6 to 137 °C	
COC(=O)CNc1ccc(-c2csc(CN(Cc3ccc(F)cc3)c3ccc(OC)c(OC)c3)n2)cc1 [Compound 47, Methyl(4-(2-(((3,4-dimethoxyphenyl)(4-fluorobenzyl)amino)methyl)thiazol-4-yl)phenyl)glycinate]	3.54 ± 0.03 µM	103.5 to 105.4 °C	
COc1ccc(N(Cc2ccc(F)cc2)Cc2nc(-c3ccc(N4CCOCC4)cc3)cs2)cc1OC [Compound 49, N-(4-Fluorobenzyl)-3,4-dimethoxy-N-((4-(4-morpholinophenyl)thiazol-2-yl)methyl)aniline]	> 50 µM	139 to 140.4 °C	
CCOC(=O)N1c2ccc(C(F)(F)F)cc2[C@@H](N(Cc2cc(C(F)(F)F)cc(C(F)(F)F)c2)C(=O)OC)C[C@H]1CC [torcetrapib]			increase of HDL-C ([7]; human studies, dose-dependent): greater than 100%; LDL-C decreasing ([7]; human studies): up to 42%; increase in deaths ([7]; torcetrapib/atorvastatin group compared to the atorvastatin group): 58%
